Assay results reported in patent US12090141B2, “Use of clemizole compounds for treatment of inflammatory conditions” (priority 2015, dated 2024).

How the values were obtained:
NASH mice [1] = assay: NAFLD activity score, HE staining of liver sections of NASH mice; type: in vivo, C57BL/6 mice; conditions: for NAS (mean ± SD): n = 6, NAFLD activity score by Kleiner criteria; for Steatosis score 0, number of mice: n = 6, score 0 = <5%; for Steatosis score 1, number of mice: n = 6, score 1 = 5-33%; for Hepatocyte ballooning score 1, number of mice: n = 6, score 1 = Few Balloon cells; for Lobular inflammation score 2, number of mice: n = 6, score 2 = 2-4 foci/200x; for Hepatocyte ballooning score 2, number of mice: n = 6, score 2 = Many cells/prominent ballooning; for Lobular inflammation score 3, number of mice: n = 6, score 3 = >4 foci/200x; for Lobular inflammation score 1, number of mice: n = 6, score 1 = <2 foci/200x
Experimental: (§1) NASH was induced in 55 male mice by a single subcutaneous injection of 200 μg streptozotocin (STZ, Sigma-Aldrich, USA) solution 2 days after birth and feeding with high fat diet (HFD, 57 kcal % fat, cat #: HFD32, CLEA Japan, Inc., Japan) after 4 weeks of age. Mice that had been induced have NASH by this method are referred to below as NASH mice.
(§2) Compound D was orally administered at doses of 89 mg/kg twice daily.
(§3) For HE staining, sections were cut from paraffin blocks of liver tissue prefixed in Bouin's solution and stained with Lillie-Mayer's Hematoxylin (Muto Pure Chemicals Co., Ltd., Japan) and eosin solution (Wako Pure Chemical Industries). NAFLD Activity score (NAS) was calculated according to the criteria of Kleiner (Kleiner D E. et al., Hepatology, 2005; 41:1313). To visualize collagen deposition, Bouin's fixed liver sections were stained using picro-Sirius red solution (Waldeck, Germany).
Definition of NAS Components

NASH mice [2] = assay: Body weight and liver weight in NASH mice (sacrifice 9 wk); conditions: for Mean body weight on the day of sacrifice vs Vehicle group / Mean liver weight on the day of sacrifice vs Vehicle group / Mean liver-to-body weight ratio on the day of sacrifice vs Vehicle group: 9 wk; for Body weight (mean ± SD): day of sacrifice 9 wk, n = 6, oral from 6 wks, A-C 258 then 129 mg/kg once daily, D 89 mg/kg twice daily; for Liver weight (mean ± SD) / Liver-to-body weight ratio (mean ± SD): sacrifice 9 wk, n = 6
Experimental: as §1, §2
C57BL/6 mice (14-day-pregnant female) were obtained from Japan SLC, Inc. (Shizuoka, Japan). All animals used in the study were housed and cared for in accordance with the Japanese Pharmacological Society Guidelines for Animal Use.

NASH mice [3] = assay: Whole blood glucose and plasma ALT in NASH mice; type: in vivo, C57BL/6 mice; conditions: for Whole blood glucose levels vs Vehicle group: during the study period, non-fasting; for Plasma ALT (mean ± SD): time of sacrifice, n = 6
Experimental: Non-fasting blood was collected in polypropylene tubes with anticoagulant (Novo-heparin, Mochida Pharmaceutical, Japan) from submandibular bleeding at 6 (before dosing), 7 and 8 weeks of age. The collected blood samples were centrifuged and the supernatant were collected as heparinized plasma.
Non-fasting blood glucose in whole blood was measured using LIFE CHECK (EIDIA Co. Ltd., Japan). Plasma ALT was measured by FUJI DRI-CHEM 7000 (Fujifilm Corporation, Japan).

NASH induced HCC mice = assay: Body weight and liver weight in NASH induced HCC mice (sacrifice 18 wk); type: in vivo; conditions: for Body weight (mean ± SD) / Liver weight (mean ± SD) / Liver-to-body weight ratio (mean ± SD): NASH induced HCC mice, 18 wk, n = 1-3
From the text: Table 1 below summarizes the treatment schedule.

NASH mice [4] = assay: Liver fibrosis area, Sirius red staining in NASH mice; type: in vivo, C57BL/6 mice; conditions: for Sirius red-positive area (mean ± SD): liver fibrosis area, n = 6
Experimental: as §3
For quantitative analysis of fibrosis areas bright field images of Sirius red-stained sections were captured around the central vein for livers using a digital camera (DFC280; Leica, Germany) at 200-fold magnification, and the positive areas in 5 fields/section were measured using ImageJ software (National Institute of Health, USA).

mice with HCC = assay: Macroscopic analysis of liver tumor nodules in mice with HCC; type: in vivo, C57BL/6 mice; conditions: for Maximum diameter of nodules (mean ± SD) / Number of nodules (mean ± SD): macroscopically visible tumor nodules on liver surface, n = 1-3
Experimental: The number of macroscopically visible tumor nodules formed on the liver surface was measured. The maximum diameter of macroscopically visible tumor nodules formed on the liver surface was measured.

CYP3A4 = CYP3A4 (Homo sapiens, UniProt P08684); assay: Clemizole metabolism by CYP450 enzymes in vitro; type: in vitro ADME
[5] = test system: hepatocellular carcinoma (HCC); assay: Phase IIa open label pilot study of clemizole in subjects with hepatocellular carcinoma; type: in vivo, human
Experimental: The completed study treats up to 40 patients. Initial clinical results from two patients with hepatocellular carcinoma who were administered 200 mg clemizole for 3 or 5 months are described below.

HCC [6] = conditions: phase 3 study, cited from earlier work
HCC [7] = conditions: phase 2 study, cited from earlier work
[8] = treatment period, 4 mice per group

Sequence of CYP3A4 (P08684 whole entry): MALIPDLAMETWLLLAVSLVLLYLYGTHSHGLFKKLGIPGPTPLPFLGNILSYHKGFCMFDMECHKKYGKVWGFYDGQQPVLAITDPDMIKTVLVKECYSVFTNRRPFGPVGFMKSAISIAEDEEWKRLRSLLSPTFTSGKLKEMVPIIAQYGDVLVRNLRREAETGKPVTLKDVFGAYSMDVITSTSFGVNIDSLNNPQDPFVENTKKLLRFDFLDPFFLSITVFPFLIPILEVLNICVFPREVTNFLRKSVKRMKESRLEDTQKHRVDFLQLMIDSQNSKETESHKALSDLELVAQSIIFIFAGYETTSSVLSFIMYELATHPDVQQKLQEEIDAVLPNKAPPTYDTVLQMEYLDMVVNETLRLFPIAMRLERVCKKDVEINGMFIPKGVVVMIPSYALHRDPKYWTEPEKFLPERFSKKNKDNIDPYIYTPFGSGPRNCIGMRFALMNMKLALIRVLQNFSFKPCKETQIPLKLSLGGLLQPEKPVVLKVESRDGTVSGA

Structure (SMILES) | NAS (mean ± SD) (NASH mice [1]) | Steatosis score 0, number of mice (NASH mice [1]) | Steatosis score 1, number of mice (NASH mice [1]) | Lobular inflammation score 2, number of mice (NASH mice [1]) | Hepatocyte ballooning score 2, number of mice (NASH mice [1]) | Lobular inflammation score 3, number of mice (NASH mice [1]) | Mean body weight on the day of sacrifice vs Vehicle group (NASH mice [2]) | Mean liver weight on the day of sacrifice vs Vehicle group (NASH mice [2]) | Mean liver-to-body weight ratio on the day of sacrifice vs Vehicle group (NASH mice [2]) | Body weight (mean ± SD) (NASH mice [2]) | Liver weight (mean ± SD) (NASH mice [2]) | Liver-to-body weight ratio (mean ± SD) (NASH mice [2]) | Whole blood glucose levels vs Vehicle group (NASH mice [3]) | Plasma ALT (mean ± SD) (NASH mice [3]) | Liver weight (mean ± SD) (NASH induced HCC mice) | Liver-to-body weight ratio (mean ± SD) (NASH induced HCC mice) | Fibrosis area at the time of sacrifice vs Vehicle group (NASH mice [4]) | Sirius red-positive area (mean ± SD) (NASH mice [4]) | Maximum diameter of nodules (mean ± SD) (mice with HCC; 18 wk) | Number of nodules (mean ± SD) (mice with HCC; 18 wk) | also measured
CCN(CC)CCCC(C)Nc1ccnc2cc(Cl)ccc12 (stereo not drawn) [Compound A, Recemic mixture of R-chloroquine and S-chloroquine] | 5.2 ± 0.8 | 1 | 5 | 1 | 3 | 5 | no significant differences | no significant differences | no significant differences | 15.0 ± 1.9 g | 1045 ± 243 mg | 7.0 ± 1.4% | no significant differences | 21 ± 13 U/L | 1443 ± 0 mg | 8.2 ± 0.0% | no significant differences | 0.87 ± 0.23% | 6.1 ± 0.0 mm | 2.0 ± 0.0 | Hepatocyte ballooning score 1, number of mice (NASH mice [1]): 3; Body weight (mean ± SD) (NASH induced HCC mice): 17.5 ± 0.0 g; Mice died before reaching week 18 (NASH induced HCC mice; [8]): Three out of 4
CCN(CC)CCC[C@@H](C)Nc1ccnc2cc(Cl)ccc12 [Compound B, R-chloroquine] | 4.3 ± 0.5 | 1 | 5 | 4 | 5 | – | no significant differences | no significant differences | no significant differences | 14.5 ± 2.4 g | 934 ± 135 mg | 6.5 ± 0.4% | no significant differences | 14 ± 6 U/L | 1616 ± 635 mg | 7.9 ± 3.0% | no significant differences | 0.78 ± 0.35% | 11.1 ± 7.0 mm | 2.0 ± 1.4 | NAS compared with the Vehicle group (NASH mice [1]): significant reduction; Lobular inflammation score 1, number of mice (NASH mice [1]): 2; Hepatocyte ballooning score 1, number of mice (NASH mice [1]): 1; Body weight (mean ± SD) (NASH induced HCC mice): 20.4 ± 0.3 g; Mice died before reaching week 18 (NASH induced HCC mice; [8]): Two out of 4
CCN(CC)CCC[C@H](C)Nc1ccnc2cc(Cl)ccc12 [Compound C, S-chloroquine] | 5.3 ± 0.5 | – | 6 | 4 | 6 | 2 | significantly decreased | significantly decreased | no significant differences | 13.7 ± 1.3 g | 810 ± 77 mg | 5.9 ± 0.4% | no significant differences | 9 ± 3 U/L | 1353 ± 178 mg | 7.6 ± 0.1% | no significant differences | 0.90 ± 0.44% | 3.5 ± 5.0 mm | 1.5 ± 2.1 | Body weight (mean ± SD) (NASH induced HCC mice): 17.9 ± 2.8 g; Mice died before reaching week 18 (NASH induced HCC mice; [8]): Two out of 4
Clc1ccc(Cn2c(CN3CCCC3)nc3ccccc32)cc1 [Compound D, clemizole] | 4.3 ± 1.0 | 1 | 5 | 1 | 6 | 1 | no significant differences | no significant differences | no significant differences | – | 1047 ± 76 mg | 6.8 ± 0.4% | no significant differences | 18 ± 10 U/L | 1710 ± 113 mg | 6.3 ± 0.8% | no significant differences | 0.95 ± 0.39% | 0.7 ± 1.2 mm | 0.3 ± 0.6 | NAS compared with the Vehicle group (NASH mice [1]): significant reduction; Lobular inflammation score 1, number of mice (NASH mice [1]): 4; Mice died before reaching week 18 (NASH induced HCC mice; male, C57BL/6, mouse, in vivo): one out of 4; Role of CYP3A4 in clemizole biotransformation in human liver (CYP3A4): mediates the majority of this drug biotransformation reaction; HCC status on follow up dynamic liver CT imaging ([5]; Patient #1, 200 mg clemizole orally thrice daily, after 3 months): the HCC remained stable; Tolerability (complaints or side effects) ([5]; Patient #1, 200 mg thrice daily, after 3 months): no complaints or side effects; HCC status on follow up dynamic liver magnetic resonance imaging ([5]; Patient #2, 200 mg clemizole orally thrice daily, after 5 months): the HCC remained stable; Tolerability (complaints or side effects) ([5]; Patient #2, 200 mg thrice daily, after 5 months): no complaints or side effects; Survived mice with absence of visible tumor nodules on the liver surface (mice with HCC; 18 wk): 2 out of 3; Tumor formation in mouse livers (FIG. 8, representative images) (mice with HCC; mouse, in vivo): inhibition of tumor formation
CNC(=O)c1cc(Oc2ccc(NC(=O)Nc3ccc(Cl)c(C(F)(F)F)c3)cc2)ccn1 [sorafenib] | – | – | – | – | – | – | – | – | – | – | – | – | – | – | – | – | – | – | – | – | Hypophosphatemia (HCC [6]; grade 3): 11%; Thrombocytopenia (HCC [6]; grade 3 or 4): 4%; Median time to radiologic progression (HCC [6]): 5.5 months; Overall incidence of treatment-related adverse events (HCC [6]): 80%; Toxicity: diarrhea (HCC [7]; all grades): over 40%; Toxicity: fatigue (HCC [7]; all grades): 30%; Toxicity: hand-foot skin reaction (HCC [7]; all grades): over 30%; Grade 3/4 drug-related toxicity: diarrhea (HCC [7]): 8.0%; Grade 3/4 drug-related toxicity: fatigue (HCC [7]): 9.5%; Grade 3/4 drug-related toxicity: hand-foot skin reaction (HCC [7]): 5.1%; Median time to progression (TTP) (HCC [7]): 4.2 months
